From patent US20240336981A1, “PANELS AND METHODS FOR DIAGNOSING AND TREATING LUNG CANCER” (The Broad Institute, Inc., priority 2021, published 2024)
pIC50: −log10 of the molar value.

Legend:
non-CDK kinases = conditions: with the exception of GSK3beta; cited from earlier work
CDK3 and CDK7 = conditions: cited from earlier work
[1] = system: lung adenocarcinoma (LUAD) cell lines; test: Proliferation assay (IncuCyte confluency); assay type: cell-based; conditions: for proliferation (response) of S3 cell lines compared to the S4 and unassigned cell lines: S3 lines HCC78, HCC827, NCIH1975, NCIH1838, 4 days
Description: lung adenocarcinoma (LUAD) cell lines were used (HCC78, HCC827, NCIH1975, NCIH1838, NCIH1395, NCIH1833, NCIH1755, ABC1, CALU3). Tests for mycoplasma contamination were negative. Cells were maintained in RPMI 1640 medium supplemented with 10% fetal bovine serum and 1% penicillin-streptomycin.
The media and drugs were replenished every 2-3 days. Continuous cell growth was monitored in 96-well plates every 3 hr for 4 days using the IncuCyte Kinetic Imaging System. The relative confluency was analyzed using IncuCyte software. The reported response percentage for each cell line was calculated as the percent of confluency compared to their DMSO treated counterpart. Proliferation assays were repeated 4 times.

EGFR = EGFR (Homo sapiens, UniProt P00533); conditions: cited from earlier work
EGFR, sequence (P00533 25-1210): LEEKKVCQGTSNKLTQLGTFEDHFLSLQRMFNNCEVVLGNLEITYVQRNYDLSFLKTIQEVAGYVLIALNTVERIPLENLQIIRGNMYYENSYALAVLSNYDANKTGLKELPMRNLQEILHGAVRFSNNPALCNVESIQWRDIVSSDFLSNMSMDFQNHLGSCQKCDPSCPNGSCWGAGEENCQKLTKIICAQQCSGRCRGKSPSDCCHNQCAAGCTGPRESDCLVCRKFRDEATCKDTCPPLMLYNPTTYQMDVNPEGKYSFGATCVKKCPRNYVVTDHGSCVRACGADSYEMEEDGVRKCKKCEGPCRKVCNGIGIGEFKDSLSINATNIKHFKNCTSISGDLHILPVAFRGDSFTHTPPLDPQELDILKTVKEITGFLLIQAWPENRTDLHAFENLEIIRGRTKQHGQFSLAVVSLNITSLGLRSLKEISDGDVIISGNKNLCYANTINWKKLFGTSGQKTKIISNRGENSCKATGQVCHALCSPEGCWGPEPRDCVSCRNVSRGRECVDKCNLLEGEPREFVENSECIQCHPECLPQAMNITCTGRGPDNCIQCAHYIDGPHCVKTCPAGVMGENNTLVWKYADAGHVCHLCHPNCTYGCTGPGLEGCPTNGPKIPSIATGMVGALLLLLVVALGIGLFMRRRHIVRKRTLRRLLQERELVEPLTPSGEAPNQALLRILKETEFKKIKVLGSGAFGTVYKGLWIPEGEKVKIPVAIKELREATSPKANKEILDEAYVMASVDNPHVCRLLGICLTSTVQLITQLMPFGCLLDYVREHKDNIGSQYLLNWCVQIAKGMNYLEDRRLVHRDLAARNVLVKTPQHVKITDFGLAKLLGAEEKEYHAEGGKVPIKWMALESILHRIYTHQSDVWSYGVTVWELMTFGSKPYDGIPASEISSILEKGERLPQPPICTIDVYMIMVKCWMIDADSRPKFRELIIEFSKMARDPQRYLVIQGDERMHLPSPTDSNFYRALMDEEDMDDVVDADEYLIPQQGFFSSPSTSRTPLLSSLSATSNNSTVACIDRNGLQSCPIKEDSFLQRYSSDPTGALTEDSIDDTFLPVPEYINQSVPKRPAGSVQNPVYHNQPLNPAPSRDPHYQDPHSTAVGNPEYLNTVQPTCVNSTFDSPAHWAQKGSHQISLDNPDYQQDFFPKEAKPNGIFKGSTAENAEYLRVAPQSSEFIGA

HER-3 = HER-3 (Homo sapiens, UniProt P21860); conditions: cited from earlier work
HER-3, sequence (P21860 20-1342): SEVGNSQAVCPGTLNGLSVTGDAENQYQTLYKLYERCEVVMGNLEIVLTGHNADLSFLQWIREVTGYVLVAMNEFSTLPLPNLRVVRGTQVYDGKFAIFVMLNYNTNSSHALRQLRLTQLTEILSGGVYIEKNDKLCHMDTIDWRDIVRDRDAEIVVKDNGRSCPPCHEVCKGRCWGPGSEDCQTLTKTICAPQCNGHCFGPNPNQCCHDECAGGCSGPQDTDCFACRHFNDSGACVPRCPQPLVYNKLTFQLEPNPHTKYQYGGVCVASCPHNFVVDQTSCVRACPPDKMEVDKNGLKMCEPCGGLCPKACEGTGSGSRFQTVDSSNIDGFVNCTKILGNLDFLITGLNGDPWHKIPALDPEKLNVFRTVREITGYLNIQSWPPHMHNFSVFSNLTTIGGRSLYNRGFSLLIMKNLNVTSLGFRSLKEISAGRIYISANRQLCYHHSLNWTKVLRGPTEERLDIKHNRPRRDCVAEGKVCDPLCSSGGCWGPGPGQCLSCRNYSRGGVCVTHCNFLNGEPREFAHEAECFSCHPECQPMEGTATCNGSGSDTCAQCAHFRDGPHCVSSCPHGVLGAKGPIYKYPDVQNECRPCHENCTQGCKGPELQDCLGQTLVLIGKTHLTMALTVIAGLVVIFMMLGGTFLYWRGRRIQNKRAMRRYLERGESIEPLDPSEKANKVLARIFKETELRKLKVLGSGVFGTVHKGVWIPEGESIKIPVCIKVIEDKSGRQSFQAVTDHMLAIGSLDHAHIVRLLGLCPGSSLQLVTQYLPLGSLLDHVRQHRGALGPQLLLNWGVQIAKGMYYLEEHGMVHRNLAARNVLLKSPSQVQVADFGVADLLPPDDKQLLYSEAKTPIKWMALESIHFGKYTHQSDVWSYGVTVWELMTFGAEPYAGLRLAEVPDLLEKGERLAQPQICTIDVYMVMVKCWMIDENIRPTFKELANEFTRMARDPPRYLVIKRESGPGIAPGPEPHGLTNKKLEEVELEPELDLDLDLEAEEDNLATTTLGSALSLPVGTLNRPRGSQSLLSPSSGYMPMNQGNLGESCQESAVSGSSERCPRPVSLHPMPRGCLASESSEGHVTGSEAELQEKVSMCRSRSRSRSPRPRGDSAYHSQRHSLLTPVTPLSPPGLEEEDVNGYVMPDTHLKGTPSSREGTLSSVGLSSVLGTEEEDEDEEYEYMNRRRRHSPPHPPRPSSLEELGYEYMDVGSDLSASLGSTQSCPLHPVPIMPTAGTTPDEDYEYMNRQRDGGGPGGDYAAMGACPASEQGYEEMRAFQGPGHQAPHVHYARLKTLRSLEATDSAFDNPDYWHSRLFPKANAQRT

[2] = system: tumor-bearing animal models such as breast, colon, lung cancers, and hepatocellular carcinoma; conditions: in vivo; cited from earlier work
BLK = BLK (Homo sapiens, UniProt P51451); conditions: in vitro; cited from earlier work
HER2 = HER2 (Homo sapiens, UniProt P04626); conditions: in vitro; cited from earlier work
HER2, sequence (P04626 23-1255): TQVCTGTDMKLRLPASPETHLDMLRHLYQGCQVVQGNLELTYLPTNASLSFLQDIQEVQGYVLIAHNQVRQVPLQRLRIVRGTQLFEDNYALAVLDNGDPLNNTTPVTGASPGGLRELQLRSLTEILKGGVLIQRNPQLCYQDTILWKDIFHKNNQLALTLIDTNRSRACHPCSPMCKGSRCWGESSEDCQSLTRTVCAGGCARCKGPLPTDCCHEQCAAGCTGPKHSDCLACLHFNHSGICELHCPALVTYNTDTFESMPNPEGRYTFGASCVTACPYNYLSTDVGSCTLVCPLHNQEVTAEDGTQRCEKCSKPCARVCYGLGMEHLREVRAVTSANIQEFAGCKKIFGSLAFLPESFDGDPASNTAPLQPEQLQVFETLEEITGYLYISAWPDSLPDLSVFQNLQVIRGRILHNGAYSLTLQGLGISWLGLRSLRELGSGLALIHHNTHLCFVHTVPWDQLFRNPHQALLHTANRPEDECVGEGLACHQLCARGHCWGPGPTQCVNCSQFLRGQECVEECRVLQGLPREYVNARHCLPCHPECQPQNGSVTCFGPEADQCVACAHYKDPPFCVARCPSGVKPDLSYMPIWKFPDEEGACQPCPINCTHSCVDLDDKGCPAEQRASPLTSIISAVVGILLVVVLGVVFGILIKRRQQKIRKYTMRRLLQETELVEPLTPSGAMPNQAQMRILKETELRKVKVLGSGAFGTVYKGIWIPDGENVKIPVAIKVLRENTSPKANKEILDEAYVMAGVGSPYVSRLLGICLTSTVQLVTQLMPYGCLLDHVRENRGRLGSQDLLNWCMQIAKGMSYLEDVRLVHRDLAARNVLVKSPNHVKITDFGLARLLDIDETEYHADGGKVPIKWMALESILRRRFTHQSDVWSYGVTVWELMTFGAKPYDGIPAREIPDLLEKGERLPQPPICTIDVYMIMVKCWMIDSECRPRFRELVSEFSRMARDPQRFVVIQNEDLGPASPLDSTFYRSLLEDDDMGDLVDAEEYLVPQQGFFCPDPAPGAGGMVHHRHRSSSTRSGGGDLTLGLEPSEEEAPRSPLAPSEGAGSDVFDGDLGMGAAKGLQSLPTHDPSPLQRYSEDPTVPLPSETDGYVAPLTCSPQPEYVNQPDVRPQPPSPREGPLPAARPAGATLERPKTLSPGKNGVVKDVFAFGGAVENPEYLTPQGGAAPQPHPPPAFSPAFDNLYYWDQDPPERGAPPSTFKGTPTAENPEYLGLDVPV

HER4 = HER4 (Homo sapiens, UniProt Q15303); conditions: in vitro; cited from earlier work
HER4, sequence (Q15303 26-1308): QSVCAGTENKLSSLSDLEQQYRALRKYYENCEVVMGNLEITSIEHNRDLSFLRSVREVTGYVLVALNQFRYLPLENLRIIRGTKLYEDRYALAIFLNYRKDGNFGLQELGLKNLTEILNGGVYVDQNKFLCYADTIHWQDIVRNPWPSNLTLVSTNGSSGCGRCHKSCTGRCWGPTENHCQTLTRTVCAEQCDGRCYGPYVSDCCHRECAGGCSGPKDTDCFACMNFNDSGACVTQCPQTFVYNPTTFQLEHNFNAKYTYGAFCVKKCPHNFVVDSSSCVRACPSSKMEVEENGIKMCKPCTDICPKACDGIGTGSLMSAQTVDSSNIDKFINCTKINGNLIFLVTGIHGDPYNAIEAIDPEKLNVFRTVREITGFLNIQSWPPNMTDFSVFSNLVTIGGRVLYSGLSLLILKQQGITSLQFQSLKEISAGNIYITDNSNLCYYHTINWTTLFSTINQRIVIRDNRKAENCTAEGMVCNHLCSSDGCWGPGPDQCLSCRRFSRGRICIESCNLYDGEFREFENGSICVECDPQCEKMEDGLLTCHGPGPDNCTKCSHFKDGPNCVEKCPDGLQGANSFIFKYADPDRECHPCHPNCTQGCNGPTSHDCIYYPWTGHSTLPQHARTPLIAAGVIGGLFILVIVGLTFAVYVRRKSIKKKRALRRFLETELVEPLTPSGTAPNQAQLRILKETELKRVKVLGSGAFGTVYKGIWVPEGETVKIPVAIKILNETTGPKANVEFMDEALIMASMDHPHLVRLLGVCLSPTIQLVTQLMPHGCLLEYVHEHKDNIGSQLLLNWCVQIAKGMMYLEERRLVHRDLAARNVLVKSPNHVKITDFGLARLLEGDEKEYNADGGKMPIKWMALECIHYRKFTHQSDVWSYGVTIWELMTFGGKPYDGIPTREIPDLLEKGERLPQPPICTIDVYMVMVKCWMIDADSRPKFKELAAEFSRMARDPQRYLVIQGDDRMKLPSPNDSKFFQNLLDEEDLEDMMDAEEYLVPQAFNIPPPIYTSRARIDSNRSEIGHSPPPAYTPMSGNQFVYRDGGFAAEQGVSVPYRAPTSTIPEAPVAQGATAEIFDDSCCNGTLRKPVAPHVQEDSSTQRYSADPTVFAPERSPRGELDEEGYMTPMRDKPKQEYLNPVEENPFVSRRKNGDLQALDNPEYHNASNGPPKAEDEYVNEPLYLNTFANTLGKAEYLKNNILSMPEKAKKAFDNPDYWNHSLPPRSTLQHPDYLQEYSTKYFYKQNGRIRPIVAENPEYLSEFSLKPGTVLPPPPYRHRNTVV

[3] = system: mutant forms of EGFR (T790M, L858R, and exon 19 deletion); conditions: exon 19 deletion vs wild-type; cited from earlier work
PD-L1 = test: Immunofluorescence staining with anti-PD-L1 antibody; assay type: cell-based; conditions: tivantinib-treated cells vs controls; all subtypes; quantified with ImageJ
Procedure: The following antibody was used for immunofluorescence staining—Recombinant Alexa Fluor® 488 Anti-PD-L1 antibody (ab209959). […] Cells were then fixed in 4% paraformaldehyde for 10 min and washed twice in cold PBS. Fluor® 488 Anti-PD-L1 antibody was added for 1 hr incubation in a light protected environment at room temperature followed by staining nuclei with DAPI. Fluorescence images were captured using Invitrogen™ EVOS™ FL Imaging System by Thermo Fisher Scientific. The fluorescent increase was further quantified using ImageJ software.

Structure (SMILES): O=C(NC1CCNCC1)c1n[nH]cc1NC(=O)c1c(Cl)cccc1Cl [AT7519]
- activity against non-CDK kinases tested (non-CDK kinases): inactive
- potency against other CDKs tested (CDK3 and CDK7): lower potency

Structure (SMILES): CCNc1cc(N[C@H]2CC[C@H](O)CC2)nc(Nc2ccc3c(ccn3Cc3ccccc3)c2)n1 [CINK4]
- proliferation (response) of S3 cell lines compared to the S4 and unassigned cell lines ([1]; CDK4/6 Inhibitor IV 1.5 μM (CDK4 specific concentration), confluency vs DMSO): significantly lower proliferation (higher response)

Structure (SMILES): CNC(=O)c1ccc(-c2cnc3ncc(Cc4ccc5ncccc5c4)n3n2)cc1F [Capmatinib]
- activity against EGFR (EGFR): ATP-competitive small molecule. Targets - c-Met. Little activity against EGFR and HER- 3.
- activity against HER-3 (HER-3): ATP-competitive small molecule. Targets - c-Met. Little activity against EGFR and HER- 3.

Structure (SMILES): Cc1cccc(-c2nn3c(c2-c2ccnc4ccc(C(N)=O)cc24)CCC3)n1 [Galunisertib]
- antitumor activity [2]: antitumor activity

Structure (SMILES): C=CC(=O)Nc1cc(Nc2ncc(C(=O)OC(C)C)c(-c3cn(C)c4ccccc34)n2)c(OC)cc1N(C)CCN(C)C [Mobocertinib]
- pIC50 (BLK): > 8.70
- pIC50 (HER2): > 8.70
- pIC50 (HER4): > 8.70

Structure (SMILES): C=CC(=O)Nc1cc(Nc2nccc(-c3cn(C)c4ccccc34)n2)c(OC)cc1N(C)CCN(C)C [Osimertinib]
- concentrations for binding mutant EGFR lower than wild-type [3]: approximately 9 fold

Structure (SMILES): CC(=O)c1c(C)c2cnc(Nc3ccc(N4CCNCC4)cn3)nc2n(C2CCCC2)c1=O [Palbociclib]
- proliferation (response) of S3 cell lines compared to the S4 and unassigned cell lines ([1]; Palbociclib 11 nM (CDK4 concentration), confluency vs DMSO): significantly lower proliferation (higher response)
- proliferation at higher doses ([1]; higher doses of palbociclib (CDK4/6 concentration 16 nM), all cell lines): inhibited proliferation in all cell lines

Structure (SMILES): O=C1NC(=O)[C@@H](c2cn3c4c(cccc24)CCC3)[C@@H]1c1c[nH]c2ccccc12 [Tivantinib]
- response of S3 compared to the other assigned groups ([1]; Tivantinib 3 μM, 4-day proliferation assay, confluency vs DMSO): significantly increased response
- PD-L1 levels in response to c-MET inhibition (PD-L1): significant increase
